# In patent US11096961B2, “Pharmaceutical composition for suppressing spinal cord ischemic disorder” (SUMITOMO SEIKA CHEMICALS CO., LTD., priority 2019, dated 2021):
# Tests used:
# [1] = test system: mouse transient spinal cord ischemia model; assay: Measurement of spinal cord blood flow (SCBF) after release of blood flow interception; type: in vivo; settings: inhalation of 5% carbon dioxide gas from cannulation until end of model creation; SCBF before interception = 100%; measured for 480 seconds after release of interception; compared with 100% oxygen control; FIG. 1
# From the text: (§1) An 8 to 12-week-old male mouse was used for creating a mouse transient spinal cord ischemia model. The mouse was subjected to endotracheal intubation under anesthesia by the inhalation of isoflurane and cannulation for measuring blood pressure in the left femoral artery. The cervix and a part of the sternum were incised, and the left common carotid artery, the aortic arch, and the left subclavian artery were exposed. The blood flow was intercepted at the aortic arch and the left subclavian artery base using two vascular clips. The vascular clips were removed 4 minutes and 30 seconds after the blood flow interception, and the blood flow interception was released. […]
# (§2) The inhalation of 5% carbon dioxide gas was started from the cannulation in the process of creating the mouse transient spine ischemia model, and the inhalation was continued until the end of the model creation. […] The spinal cord blood flow (SCBF) before the blood flow interception was defined as 100%, and the spinal cord blood flow was measured for 480 seconds after the blood flow interception was released. A known method (Basso et al., J Nurotrauma, 23(5): 635-59, 2006) was partially modified, and the motor functions were continuously evaluated by the Basso Mouse Scale (BMS) 24, 48 and 72 hours after spinal cord ischemia. […]
# [2] = test system: mouse transient spinal cord ischemia model; assay: Evaluation of motor function by Basso Mouse Scale (BMS) after spinal cord ischemia; type: in vivo; settings: inhalation of 5% carbon dioxide gas, compared with 100% oxygen controls, FIGS. 2A-2B
# From the text: as §1, §2
smiles,measurement,setting,value
"O=C=O [5% carbon dioxide gas, carbon dioxide]",spinal cord blood flow (SCBF) in the ischemic state,[1],improved more rapidly
same,decreases in the motor functions (Basso Mouse Scale),"[2]; BMS 24, 48 and 72 hours after spinal cord ischemia",hardly observed
same,onset of late-onset paraplegia,"[2]; BMS=0 to 5 is paraplegia or death, 24, 48 and 72 hours after ischemia",suppressed remarkably
